From US7709444B2, “Echinocandin pharmaceutical formulations containing micelle-forming surfactants” (Pfizer Inc., priority 1999, dated 2010)
*1 amine or outer side, *2 acyl side, *3 side chain or, on linkers, in order; H or OH if unused. Where a SMILES comes first, the peptide text is derived from it. Bridges are numbered along the chain shown (N, C = ends). [ ]: non-standard residue; d: D form. The star is where a group is joined. ξ: configuration not given here. pTerphenylCO(4''-OnC5H11) = CCCCCOc1ccc(-c2ccc(-c3ccc(C(=O)*)cc3)cc2)cc1; ξOrn(4,5-diOH) = O=C(C(CC(O)C(O)N[*:3])N[*:1])[*:2]; ξhTyr(βξ-OH,γξ-OH) = NC(C(=O)O)C(O)C(O)c1ccc(O)cc1; ξPro(3ξ-OH,4ξ-Me) = CC1CNC(C(=O)O)C1O; Hyp = O=C(O)[CH]1C[CH](O)CN1

Tests used:
[1] = Solubility studies of Com 6(a) in surfactant test solutions, reverse phase HPLC; format: physicochemical; conditions: room temperature
Method: Solubility studies were performed at room temperature by transferring 5 ml of test solution (surfactant in water optionally containing a bulking agent, a buffer or a stabilizing agent) and 50 mg of Com 6(a) into a glass test tube. The test tubes were agitated overnight and examined for excess solid. Test tubes containing excess solid were removed for analysis. […] All samples were allowed to stand 1 h, supernatant was removed, filtered and analyzed by reverse phase HPLC to determine the potency of Com 6(a) per Ml of solution.

[2] = Stability of freeze-dried formulations, related substances by reverse phase HPLC, storage at 40° C.; format: physicochemical
Method: The stability of solution and freeze-dried formulations was evaluated by monitoring a sample of the formulation for the percent increase in related substances by reverse phase HPLC at initial, 2 weeks and 4 weeks of storage at 40° C.

In the case of CCCCCOc1ccc(-c2ccc(-c3ccc(C(=O)NC4CC(O)C(O)NC(=O)C5C(O)C(C)CN5C(=O)C(C(C)O)NC(=O)C(C(O)C(O)c5ccc(O)cc5)NC(=O)C5CC(O)CN5C(=O)C(C(C)O)NC4=O)cc3)cc2)cc1 (stereo not drawn) [Compound 6(a)] ({pTerphenylCO(4''-OnC5H11)}-[ξOrn(4,5-diOH)]T[Hyp][ξhTyr(βξ-OH,γξ-OH)]T[ξPro(3ξ-OH,4ξ-Me)]; lactam 1-C; configuration not given here), the “Comp6(a) Potency (solubility)” value ([1]; Poly 20 [5]/Poly 80 [5]) is reported as 4800 µg/mL, the “Comp6(a) Potency (solubility)” value ([1]; Poly 20 [5]/Poly 80 [10]) is reported as 8000 µg/mL and the “Comp6(a) Potency (solubility)” value ([1]; Poly 20 [5]/pluronic F68 [10]) is reported as 1130 µg/mL. The “Comp6(a) Potency (solubility)” value ([1]; Poly 80 [5]) was 1000 µg/mL, the “Comp6(a) Potency (solubility)” value ([1]; Poly 80 [10]) was 4400 µg/mL and the “Comp6(a) Potency (solubility)” value ([1]; Poly 80 [15]) was 7200 µg/mL. The “Comp6(a) Potency (solubility)” value ([1]; Poly 80 [20]/sodium taurodeoxycholate [20]) was 43120 µg/mL, the “Comp6(a) Potency (solubility)” value ([1]; Poly 80 [25]) was 13200 µg/mL and the “Comp6(a) Potency (solubility)” value ([1]; Sur None) was <100 µg/mL. The “Comp6(a) Potency (solubility)” value ([1]; ethoxylated castor oil (cremophor EL) [25]) was 11000 µg/mL, the “% Related Substances” value ([2]; 6(a) Potency 1, Poly 80(25), Cit(1.9), Man(50), 0 wks) was 3.22% and the “% Related Substances” value ([2]; 6(a) Potency 1, Poly 80(25), Cit(1.9), Man(50), 2 wks) was 10.24%. The “% Related Substances” value ([2]; 6(a) Potency 1, Poly 80(25), Cit(1.9), Man(50), 4 wks) was 12.16%, the “% Related Substances” value ([2]; 6(a) Potency 1, Poly 80(25), Cit(9.6), Man(50), 0 wks) was 3.36% and the “% Related Substances” value ([2]; 6(a) Potency 1, Poly 80(25), Cit(9.6), Man(50), 2 wks) was 11.74%. The “% Related Substances” value ([2]; 6(a) Potency 1, Poly 80(25), Cit(9.6), Man(50), 4 wks) was 18.63%, the “% Related Substances” value ([2]; 6(a) Potency 1, Poly 80(25), Cit(19.2), Man(50), 0 wks) was 3.37% and the “% Related Substances” value ([2]; 6(a) Potency 1, Poly 80(25), Cit(19.2), Man(50), 2 wks) was 17.29%. The “% Related Substances” value ([2]; 6(a) Potency 1, Poly 80(25), Cit(19.2), Man(50), 4 wks) was 22.61%, the “% Related Substances” value ([2]; 6(a) Potency 5, Poly 80(12.5), no B, Lac(10), Man(50), 0 wks) was 6.42% and the “% Related Substances” value ([2]; 6(a) Potency 5, Poly 80(12.5), no B, Lac(10), Man(50), 2 wks) was 6.98%. The “% Related Substances” value ([2]; 6(a) Potency 5, Poly 80(12.5), no B, Lac(10), Man(50), 4 wks) was 6.85%, the “% Related Substances” value ([2]; 6(a) Potency 8, Poly 80 (20), no B, Lac(10), Man(50), 0 wks) was 5.99% and the “% Related Substances” value ([2]; 6(a) Potency 8, Poly 80 (20), no B, Lac(10), Man(50), 2 wks) was 6.16%. For the same molecule, the “% Related Substances” value ([2]; 6(a) Potency 8, Poly 80 (20), no B, Lac(10), Man(50), 4 wks) was 5.74%, the “% Related Substances” value ([2]; 6(a) Potency 10, Poly 80(25), Cit(9.6), Suc(5), Man(50), 0 wks) was 3.70% and the “% Related Substances” value ([2]; 6(a) Potency 10, Poly 80(25), Cit(9.6), Suc(5), Man(50), 2 wks) was 5.60%. For the same molecule, the “% Related Substances” value ([2]; 6(a) Potency 10, Poly 80(25), Cit(9.6), Suc(5), Man(50), 4 wks) was 6.01%, the “% Related Substances” value ([2]; 6(a) Potency 10, Poly 80(25), Cit(9.6), Suc(10), Man(50), 0 wks) was 3.77% and the “% Related Substances” value ([2]; 6(a) Potency 10, Poly 80(25), Cit(9.6), Suc(10), Man(50), 2 wks) was 5.41%. The “% Related Substances” value ([2]; 6(a) Potency 10, Poly 80(25), Cit(9.6), Suc(10), Man(50), 4 wks) was 5.88%, the “% Related Substances” value ([2]; 6(a) Potency 10, Poly 80(25), Cit(9.6), Suc(50), no BA, 0 wks) was 3.60% and the “% Related Substances” value ([2]; 6(a) Potency 10, Poly 80(25), Cit(9.6), Suc(50), no BA, 2 wks) was 5.4%. For the same molecule, the “% Related Substances” value ([2]; 6(a) Potency 10, Poly 80(25), Cit(9.6), Suc(50), no BA, 4 wks) was 6.01%, the “% Related Substances” value ([2]; 6(a) Potency 10, Poly 80(25), Cit(9.6), Tre(50), no BA, 0 wks) was 3.73% and the “% Related Substances” value ([2]; 6(a) Potency 10, Poly 80(25), Cit(9.6), Tre(50), no BA, 2 wks) was 4.83%. The “% Related Substances” value ([2]; 6(a) Potency 10, Poly 80(25), Cit(9.6), Tre(50), no BA, 4 wks) was 6.19%, the “% Related Substances” value ([2]; 6(a) Potency 10, Poly 80(25), Tar(1.13), Fru(10), Man(50), 0 wks) was 2.49% and the “% Related Substances” value ([2]; 6(a) Potency 10, Poly 80(25), Tar(1.13), Fru(10), Man(50), 4 wks) was 2.42%. The “% Related Substances” value ([2]; 6(a) Potency 10, Poly 80(25), no B, Lac(10), Man(50) (first of two identical lines), 0 wks) was 4.56%, the “% Related Substances” value ([2]; 6(a) Potency 10, Poly 80(25), no B, Lac(10), Man(50) (first of two identical lines), 2 wks) was 4.51% and the “% Related Substances” value ([2]; 6(a) Potency 10, Poly 80(25), no B, Lac(10), Man(50) (first of two identical lines), 4 wks) was 4.85%. The “% Related Substances” value ([2]; 6(a) Potency 10, Poly 80(25), no B, Lac(10), Man(50) (second of two identical lines), 0 wks) was 4.06%, the “% Related Substances” value ([2]; 6(a) Potency 10, Poly 80(25), no B, Lac(10), Man(50) (second of two identical lines), 2 wks) was 5.47% and the “% Related Substances” value ([2]; 6(a) Potency 10, Poly 80(25), no B, Lac(10), Man(50) (second of two identical lines), 4 wks) was 5.17%. The “% Related Substances” value ([2]; 6(a) Potency 10, Poly 80(25), no B, PEG6000(10), Man(50), 0 wks) was 4.13%, the “% Related Substances” value ([2]; 6(a) Potency 10, Poly 80(25), no B, PEG6000(10), Man(50), 2 wks) was 4.47% and the “% Related Substances” value ([2]; 6(a) Potency 10, Poly 80(25), no B, PEG6000(10), Man(50), 4 wks) was 8.11%. For the same molecule, the “% Related Substances” value ([2]; 6(a) Potency 10, Poly 80(25), no B, PEG8000(10), Man(50), 0 wks) was 3.97%, the “% Related Substances” value ([2]; 6(a) Potency 10, Poly 80(25), no B, PEG8000(10), Man(50), 2 wks) was 4.23% and the “% Related Substances” value ([2]; 6(a) Potency 10, Poly 80(25), no B, PEG8000(10), Man(50), 4 wks) was 6.73%. For the same molecule, the “% Related Substances” value ([2]; 6(a) Potency 10, Poly 80(25), no B, Suc(10), Man(50), 0 wks) was 4.26%, the “% Related Substances” value ([2]; 6(a) Potency 10, Poly 80(25), no B, Suc(10), Man(50), 2 wks) was 4.82% and the “% Related Substances” value ([2]; 6(a) Potency 10, Poly 80(25), no B, Suc(10), Man(50), 4 wks) was 4.49%. For the same molecule, the “% Related Substances” value ([2]; 6(a) Potency 10, Poly 80(25), no B, no SA, Man(50), 0 wks) was 3.98%.
